Source: patent US11697667B2, “Salts and polymorphs of cethromycin for the treatment of disease” (AliquantumRx, Inc., priority 2019, dated 2023)
Entries after “also recorded” stand apart in the source; their conditions may differ.

Experiments:
[1] = Solubility assessment of amorphous cethromycin chloride in solvents at 25° C.; format: physicochemical
[2] = Storage stability at 40° C./75% RH and 25° C./97% RH (PXRD, HPLC, NMR); format: physicochemical; settings: 9 days, Batch D
Experimental: Studies were performed on various cethromycin forms in order to determine stability for storage.

## CCC1OC(=O)C(C)C(=O)C(C)C(OC2OC(C)CC(N(C)C)C2O)C(C)(OCC=Cc2cnc3ccccc3c2)CC(C)C(=O)C(C)C2NC(=O)OC12C.Cl (stereo not drawn) [amorphous cethromycin chloride]
[1]; 18 solvents
  Solubility in selected solvents: soluble in 10 of the 18 solvents
[1]; Acetone, 1 vol
  Solubility: ✓ (dissolved)
[1]; EtOAc, 1 vol
  Solubility: x (not dissolved/too dry to slurry)
[1]; EtOAc, 2 vol
  Solubility: x (not dissolved/too dry to slurry)
[1]; EtOAc, 3 vol
  Solubility: x (not dissolved/too dry to slurry)
[1]; EtOAc, 4 vol
  Solubility: x (not dissolved/too dry to slurry)
[1]; EtOAc, 5 vol
  Solubility: ✓o (slurry)
[1]; EtOH/H2O (10%), 1 vol
  Solubility: ✓ (dissolved)
[1]; Ethanol, 1 vol
  Solubility: ✓ (dissolved)
[1]; Hept, 1 vol
  Solubility: x (not dissolved/too dry to slurry)
[1]; Hept, 2 vol
  Solubility: x (not dissolved/too dry to slurry)
[1]; Hept, 3 vol
  Solubility: x (not dissolved/too dry to slurry)
[1]; Hept, 4 vol
  Solubility: x (not dissolved/too dry to slurry)
[1]; Hept, 5 vol
  Solubility: x (not dissolved/too dry to slurry)
[1]; Hept, 10 vol
  Solubility: ✓o (slurry)
[1]; MEK, 1 vol
  Solubility: x (not dissolved/too dry to slurry)
[1]; MEK, 2 vol
  Solubility: x (not dissolved/too dry to slurry)
[1]; MEK, 3 vol
  Solubility: x (not dissolved/too dry to slurry)
[1]; MEK, 4 vol
  Solubility: x (not dissolved/too dry to slurry)
[1]; MEK, 5 vol
  Solubility: ✓o (slurry)
[1]; MIBK, 1 vol
  Solubility: x (not dissolved/too dry to slurry)
[1]; MIBK, 2 vol
  Solubility: x (not dissolved/too dry to slurry)
[1]; MIBK, 3 vol
  Solubility: x (not dissolved/too dry to slurry)
[1]; MIBK, 4 vol
  Solubility: x (not dissolved/too dry to slurry)
[1]; MIBK, 5 vol
  Solubility: ✓o (slurry)
[1]; MTBE, 1 vol
  Solubility: x (not dissolved/too dry to slurry)
[1]; MTBE, 2 vol
  Solubility: x (not dissolved/too dry to slurry)
[1]; MTBE, 3 vol
  Solubility: x (not dissolved/too dry to slurry)
[1]; MTBE, 4 vol
  Solubility: x (not dissolved/too dry to slurry)
[1]; MTBE, 10 vol
  Solubility: ✓o (slurry)
[1]; MeCN, 1 vol
  Solubility: ✓ (dissolved)
[1]; MeOH, 1 vol
  Solubility: ✓ (dissolved)
[1]; THF, 1 vol
  Solubility: x (not dissolved/too dry to slurry)
[1]; THF, 2 vol
  Solubility: x (not dissolved/too dry to slurry)
[1]; THF, 3 vol
  Solubility: x (not dissolved/too dry to slurry)
[1]; THF, 4 vol
  Solubility: x (not dissolved/too dry to slurry)
[1]; THF, 5 vol
  Solubility: ✓ (dissolved)
[1]; THF/H2O (10%), 1 vol
  Solubility: ✓ (dissolved)
[1]; Toluene, 1 vol
  Solubility: x (not dissolved/too dry to slurry)
[1]; Toluene, 2 vol
  Solubility: x (not dissolved/too dry to slurry)
[1]; Toluene, 3 vol
  Solubility: x (not dissolved/too dry to slurry)
[1]; Toluene, 4 vol
  Solubility: x (not dissolved/too dry to slurry)
[1]; Toluene, 5 vol
  Solubility: x (not dissolved/too dry to slurry)
[1]; Toluene, 10 vol
  Solubility: ✓o (slurry)
[1]; cHex, 1 vol
  Solubility: x (not dissolved/too dry to slurry)
[1]; cHex, 2 vol
  Solubility: x (not dissolved/too dry to slurry)
[1]; cHex, 3 vol
  Solubility: x (not dissolved/too dry to slurry)
[1]; cHex, 4 vol
  Solubility: x (not dissolved/too dry to slurry)
[1]; cHex, 5 vol
  Solubility: x (not dissolved/too dry to slurry)
[1]; cHex, 10 vol
  Solubility: ✓o (slurry)
[1]; iBuOH, 1 vol
  Solubility: ✓ (dissolved)
[1]; iPrOAc, 1 vol
  Solubility: x (not dissolved/too dry to slurry)
[1]; iPrOAc, 2 vol
  Solubility: x (not dissolved/too dry to slurry)
[1]; iPrOAc, 3 vol
  Solubility: x (not dissolved/too dry to slurry)
[1]; iPrOAc, 4 vol
  Solubility: x (not dissolved/too dry to slurry)
[1]; iPrOAc, 5 vol
  Solubility: x (not dissolved/too dry to slurry)
[1]; iPrOAc, 10 vol
  Solubility: ✓o (slurry)
[1]; iPrOH, 1 vol
  Solubility: ✓ (dissolved)
[1]; iPrOH/H2O (10%), 1 vol
  Solubility: ✓ (dissolved)
[2]
  Storage at 40° C./75% RH for 9 days (PXRD): did not crystallise; also recorded: amorphous
